Laboratory results from patent publication US20060069132A1, “Azolecarboxamide herbicides” (priority 2004, published 2006).
Like-named read-outs stand apart in the source and are kept apart here.

Assays:
yellow nutsedge = assay: Test C pre-/postemergence herbicide test; assay type: in vivo, Cyperus esculentus
Procedure, shortened: (§1)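 Preemergence: seeds planted and treated with compound in non-phytotoxic solvent with surfactant; postemergence: plants at 2 to 18 cm (1- to 4-leaf stage) sprayed likewise. Kept in greenhouse 12 to 14 days, then visually rated against controls, 0 (no effect) to 100 (complete control).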

ducksalad = assay: Test C flooded paddy test; assay type: in vivo, Heteranthera limosa; conditions: Heteranthera limosa
goosegrass = assay: Test C pre-/postemergence herbicide test; assay type: in vivo, Eleusine indica
Procedure, shortened: as §1

giant foxtail [1] = assay: Test C pre-/postemergence herbicide test; assay type: in vivo, Setaria faberi
Procedure, shortened: as §1

soybean = assay: Test C pre-/postemergence herbicide test; assay type: in vivo, Glycine max
Procedure, shortened: as §1

barnyardgrass = assay: Test C flooded paddy test; assay type: in vivo, Echinochloa crus-galli; conditions: Echinochloa crus-galli
Procedure, shortened: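 Ratings (0 = no effect, 100 = complete control) come from visual comparison with untreated plants after 12 to 14 days in the greenhouse. Treatment was postemergence at the 1- to 4-leaf stage (2–18 cm), or at the 2-leaf stage for the flooded paddy barnyardgrass.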

redroot pigweed = assay: Test A pre-/postemergence herbicide test; assay type: in vivo, Amaranthus retroflexus; conditions: Amaranthus retroflexus, 240 h; for pest or weed control at 500 g/ha: 500 g ai/ha; for pest or weed control at 2000 g/ha: 2000 g ai/ha
Procedure, shortened: (§2)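 Sandy loam soil given preemergence directed spray; plants at 2 to 10 cm, one- to two-leaf stage, sprayed to runoff postemergence, compounds in non-phytotoxic solvent with surfactant. Injury rated visually versus untreated controls after about ten greenhouse days, 0 (no effect) to 100 (complete control); dash means not tested.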

large crabgrass = assay: Test C pre-/postemergence herbicide test; assay type: in vivo, Digitaria sanguinalis
Procedure, shortened: as §1

giant foxtail [2] = assay: Test A pre-/postemergence herbicide test; assay type: in vivo, Setaria faberi; conditions: Setaria faberi, 240 h; for pest or weed control at 500 g/ha: 500 g ai/ha; for pest or weed control at 2000 g/ha: 2000 g ai/ha
Procedure, shortened: as §2

velvetleaf = assay: Test C pre-/postemergence herbicide test; assay type: in vivo, Abutilon theophrasti
Procedure, shortened: as §1

pigweed = assay: Test C pre-/postemergence herbicide test; assay type: in vivo, Amaranthus retroflexus
Procedure, shortened: as §1

morningglory = assay: Test A pre-/postemergence herbicide test; assay type: in vivo, Ipomoea spp.; conditions: Ipomoea, 240 h; for pest or weed control at 500 g/ha: 500 g ai/ha; for pest or weed control at 2000 g/ha: 2000 g ai/ha
Procedure, shortened: as §2

common ragweed = assay: Test C pre-/postemergence herbicide test; assay type: in vivo, Ambrosia elatior
Procedure, shortened: as §1

[3] = Preemergence, 500 g ai/ha, scale 0 to 100, 0 no effect, 100 complete control
[4] = post-emergence, Postemergence, 0 to 100 scale, 0 no effect, 100 complete control, read-out: Plant response rating, Pigweed
[5] = post-emergence, Postemergence, 0 to 100 scale, 0 no effect, 100 complete control, read-out: Plant response rating, Foxtail, Giant
[6] = post-emergence, Postemergence, 0 to 100 scale, 0 no effect, 100 complete control, read-out: Plant response rating, Morningglory

`CCn1nc(C(C)(C)C)cc1C(=O)Nc1cc(C(=O)N(C)C)ccc1F` [Compound 6, N-[5-[(dimethylamino)carbonyl]-2-fluorophenyl]-3-(1,1-dimethylethyl)-1-ethyl-1H-pyrazole-5-carboxamide] was tested, and the “Plant response rating (0 = no effect, 100 = complete control), Nutsedge, Yellow” value (yellow nutsedge; 62 g ai/ha, preemergence) was 50, the pest or weed control at 250 g/ha (yellow nutsedge; Cyperus, pre-emergence, 250 g ai/ha, scale 0 to 100 (0 no effect, 100 complete control), visual, 12 to 14 days, read-out: Plant response rating, Nutsedge, Yellow) was 80% and the “Nutsedge, Yellow plant response rating” value (yellow nutsedge; [3]) was 85. It also gave a pest or weed control at 62 g/ha (ducksalad; 62 g ai/ha, scale 0 to 100 (0 no effect, 100 complete control), read-out: Ducksalad plant response rating) of 80%, a pest or weed control at 125 g/ha (ducksalad; 125 g ai/ha, scale of 0 to 100, 0 is no effect, 100 is complete control, read-out: Ducksalad plant response rating) of 90% and a pest or weed control at 250 g/ha (ducksalad; 250 g ai/ha, visual rating after 12 to 14 days, scale 0 to 100 (0 no effect, 100 complete control), read-out: Plant response rating, Ducksalad) of 90%. The pest or weed control at 500 g/ha (ducksalad; 500 g ai/ha, visual rating after 12 to 14 days, scale 0 to 100 (0 no effect, 100 complete control), read-out: Plant response rating, Ducksalad) was 100%, the “Plant response rating (0 = no effect, 100 = complete control), Goosegrass” value (goosegrass; 62 g ai/ha, preemergence) was 85 and the pest or weed control at 125 g/ha (goosegrass; Eleusine indica, pre-emergence, 312 h, 125 g ai/ha, scale 0-100, read-out: Plant response rating, Goosegrass) was 100%. For the same compound, the pest or weed control at 250 g/ha (goosegrass; Eleusine indica, pre-emergence, 312 h, 250 g ai/ha, scale 0 to 100 (0 no effect, 100 complete control), visual, 12 to 14 days, read-out: Plant response rating, Goosegrass) was 100%, the “Goosegrass plant response rating” value (goosegrass; [3]) was 100 and the “Plant response rating (0 = no effect, 100 = complete control), Foxtail, Giant” value (giant foxtail [1]; 62 g ai/ha, preemergence) was 60. For the same compound, the “Foxtail, Giant plant response rating” value (giant foxtail [1]; [3]) was 100, the pest or weed control at 125 g/ha (giant foxtail [1]; Setaria faberi, pre-emergence, 312 h, 125 g ai/ha, scale 0-100, read-out: Plant response rating, Foxtail, Giant) was 80% and the pest or weed control at 250 g/ha (giant foxtail [1]; Setaria faberi, pre-emergence, 312 h, 250 g ai/ha, scale 0 to 100 (0 no effect, 100 complete control), visual, 12 to 14 days, read-out: Plant response rating, Foxtail, Giant) was 85%. For the same compound, the “Plant response rating (0 = no effect, 100 = complete control), Soybean” value (soybean; 62 g ai/ha, preemergence) was 70, the plant injury at 250 g/ha (soybean; Glycine max, pre-emergence, 250 g ai/ha, scale 0 to 100 (0 no effect, 100 complete control), visual, 12 to 14 days, read-out: Plant response rating, Soybean) was 100% and the “Soybean plant response rating” value (soybean; [3]) was 100. For the same compound, the pest or weed control at 62 g/ha (barnyardgrass; 62 g ai/ha, scale 0 to 100 (0 no effect, 100 complete control), read-out: Barnyardgrass plant response rating) was 60%, the pest or weed control at 125 g/ha (barnyardgrass; 125 g ai/ha, scale of 0 to 100, 0 is no effect, 100 is complete control, read-out: Barnyardgrass plant response rating) was 90% and the pest or weed control at 250 g/ha (barnyardgrass; 250 g ai/ha, visual rating after 12 to 14 days, scale 0 to 100 (0 no effect, 100 complete control), read-out: Plant response rating, Barnyardgrass) was 90%. The pest or weed control at 500 g/ha (barnyardgrass; 500 g ai/ha, visual rating after 12 to 14 days, scale 0 to 100 (0 no effect, 100 complete control), read-out: Plant response rating, Barnyardgrass) was 90%, the pest or weed control at 500 g/ha (redroot pigweed; [4]) was 100% and the pest or weed control at 2000 g/ha (redroot pigweed; [4]) was 100%. The pest or weed control at 500 g/ha (redroot pigweed; pre-emergence, Preemergence, visual rating, 0 to 100 scale (0 no effect, 100 complete control), read-out: Pigweed plant response rating) was 100%, the pest or weed control at 2000 g/ha (redroot pigweed; pre-emergence, Preemergence, 0 to 100 scale, 0 no effect, 100 complete control, read-out: Pigweed plant response rating) was 100% and the “Plant response rating (0 = no effect, 100 = complete control), Crabgrass, Large” value (large crabgrass; 62 g ai/ha, preemergence) was 75. For the same compound, the pest or weed control at 125 g/ha (large crabgrass; Digitaria sanguinalis, pre-emergence, 312 h, 125 g ai/ha, scale 0-100, read-out: Plant response rating, Crabgrass, Large) was 95%, the pest or weed control at 250 g/ha (large crabgrass; Digitaria sanguinalis, pre-emergence, 312 h, 250 g ai/ha, scale 0 to 100 (0 no effect, 100 complete control), visual, 12 to 14 days, read-out: Plant response rating, Crabgrass, Large) was 95% and the “Crabgrass, Large plant response rating” value (large crabgrass; [3]) was 100. For the same compound, the pest or weed control at 500 g/ha (giant foxtail [2]; [5]) was 70%, the pest or weed control at 2000 g/ha (giant foxtail [2]; [5]) was 70% and the pest or weed control at 500 g/ha (giant foxtail [2]; pre-emergence, Preemergence, visual rating, 0 to 100 scale (0 no effect, 100 complete control), read-out: Foxtail, Giant plant response rating) was 100%. For the same compound, the pest or weed control at 2000 g/ha (giant foxtail [2]; pre-emergence, Preemergence, 0 to 100 scale, 0 no effect, 100 complete control, read-out: Foxtail, Giant plant response rating) was 100%, the “Plant response rating (0 = no effect, 100 = complete control), Velvetleaf” value (velvetleaf; 62 g ai/ha, preemergence) was 40 and the pest or weed control at 250 g/ha (velvetleaf; Abutilon theophrasti, pre-emergence, 250 g ai/ha, scale 0 to 100 (0 no effect, 100 complete control), visual, 12 to 14 days, read-out: Plant response rating, Velvetleaf) was 100%. For the same compound, the “Velvetleaf plant response rating” value (velvetleaf; [3]) was 100, the “Plant response rating (0 = no effect, 100 = complete control), Pigweed” value (pigweed; 62 g ai/ha, preemergence) was 100 and the pest or weed control at 250 g/ha (pigweed; Amaranthus retroflexus, pre-emergence, 250 g ai/ha, scale 0 to 100 (0 no effect, 100 complete control), visual, 12 to 14 days, read-out: Plant response rating, Pigweed) was 100%. For the same compound, the “Pigweed plant response rating” value (pigweed; [3]) was 100, the pest or weed control at 500 g/ha (morningglory; [6]) was 10% and the pest or weed control at 2000 g/ha (morningglory; [6]) was 30%. The pest or weed control at 500 g/ha (morningglory; pre-emergence, Preemergence, visual rating, 0 to 100 scale (0 no effect, 100 complete control), read-out: Morningglory plant response rating) was 45%, the pest or weed control at 2000 g/ha (morningglory; pre-emergence, Preemergence, 0 to 100 scale, 0 no effect, 100 complete control, read-out: Morningglory plant response rating) was 80% and the “Plant response rating (0 = no effect, 100 = complete control), Ragweed” value (common ragweed; 62 g ai/ha, preemergence) was 100. For the same compound, the pest or weed control at 250 g/ha (common ragweed; Ambrosia artemisiifolia, pre-emergence, 250 g ai/ha, scale 0 to 100 (0 no effect, 100 complete control), visual, 12 to 14 days, read-out: Plant response rating, Ragweed) was 100% and the “Ragweed plant response rating” value (common ragweed; [3]) was 100.
